From patent US11999727B2 (Tango Therapeutics, Inc., priority 2020, dated 2024)

Assays:
[1] = system: HAP1 MTAP-deleted cell line; test: Viability assay, MTAP-deleted cell line; assay type: cell-based; details: Homo sapiens, HAP1, viability assay, read-out: HAP1 MTAP deleted viability
Excerpt: Table 1 additionally indicates IC50 values in a viability assay for the MTAP-deleted cell line (column 10), indicating the effect of treatment with compound on cell survival.

[2] = system: HAP1 MTAP-intact cell line; test: SDMA in-cell western assay, HAP1 MTAP-intact; assay type: cell-based; details: Homo sapiens, HAP1, SDMA in-cell western, HAP1 MTAP-intact; read-out: MTAP HAP1 intact IC50
Summary of the method: (§1)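 IC50 values come from SDMA signal quantified by in-cell western in two HAP1 lines, one with native MTAP levels and one lacking MTAP.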

[3] = system: HAP1 MTAP-deleted cell line; test: SDMA in-cell western assay, HAP1 MTAP-deleted; assay type: cell-based; details: for IC50: Homo sapiens, HAP1, SDMA in-cell western, HAP1 MTAP-deleted; for MTAP intact/deleted ratio: IC50 ratio HAP1 MTAP-intact / HAP1 MTAP-deleted, SDMA in-cell western
Summary of the method: as §1

PRMT5 [4] = target: T1, PRMT5 (Homo sapiens, UniProt O14744); test: PRMT5 biochemical IC50 assay with no cofactor; details: PRMT5, no cofactor; read-out: No Cofactor/rel IC50
T1 construct: purchased Viva (custom protein)
Excerpt: Table 1 indicates IC50 values (μM) against PRMT5 for exemplary compounds in the presence of SAM as cofactor, with no cofactor, and with MTA as cofactor, respectively (columns 4-6). […] Ki values can be calculated from the IC50 values as described in the Examples section. As detailed in the Examples section, for the assay performed in the presence of SAM, IC50=Ki×1.5 (Ki=IC50/1.5).

PRMT5 [5] = target: T1, PRMT5; test: PRMT5 biochemical IC50 assay with SAM as cofactor; details: PRMT5, SAM as cofactor; read-out: SAM IC50
PRMT5 [6] = target: T1, PRMT5; test: PRMT5 biochemical IC50 assay with MTA as cofactor; details: PRMT5, MTA as cofactor; read-out: MTA IC50
[7] = read-out: HAP1 MTAP deleted IC50
[8] = read-out: HAP 1 MTAP deleted IC50

T1 sequence (O14744 whole entry): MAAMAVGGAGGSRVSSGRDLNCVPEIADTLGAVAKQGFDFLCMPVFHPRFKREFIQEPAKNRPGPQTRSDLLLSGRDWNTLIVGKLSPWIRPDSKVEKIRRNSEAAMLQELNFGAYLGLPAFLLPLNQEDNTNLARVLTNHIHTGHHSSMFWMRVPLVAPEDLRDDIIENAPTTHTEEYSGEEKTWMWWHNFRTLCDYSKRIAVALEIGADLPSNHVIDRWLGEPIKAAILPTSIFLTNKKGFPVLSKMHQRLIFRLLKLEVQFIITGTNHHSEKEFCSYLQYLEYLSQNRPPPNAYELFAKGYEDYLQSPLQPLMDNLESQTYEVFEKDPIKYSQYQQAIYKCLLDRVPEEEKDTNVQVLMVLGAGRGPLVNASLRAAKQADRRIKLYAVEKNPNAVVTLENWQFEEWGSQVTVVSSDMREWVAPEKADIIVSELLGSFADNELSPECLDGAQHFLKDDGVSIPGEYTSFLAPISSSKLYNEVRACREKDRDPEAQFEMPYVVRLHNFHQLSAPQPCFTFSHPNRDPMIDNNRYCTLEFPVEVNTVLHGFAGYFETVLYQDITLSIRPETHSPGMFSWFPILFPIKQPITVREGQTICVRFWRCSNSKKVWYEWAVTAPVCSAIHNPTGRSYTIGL
T1 sequence (Q9BQA1 whole entry partner): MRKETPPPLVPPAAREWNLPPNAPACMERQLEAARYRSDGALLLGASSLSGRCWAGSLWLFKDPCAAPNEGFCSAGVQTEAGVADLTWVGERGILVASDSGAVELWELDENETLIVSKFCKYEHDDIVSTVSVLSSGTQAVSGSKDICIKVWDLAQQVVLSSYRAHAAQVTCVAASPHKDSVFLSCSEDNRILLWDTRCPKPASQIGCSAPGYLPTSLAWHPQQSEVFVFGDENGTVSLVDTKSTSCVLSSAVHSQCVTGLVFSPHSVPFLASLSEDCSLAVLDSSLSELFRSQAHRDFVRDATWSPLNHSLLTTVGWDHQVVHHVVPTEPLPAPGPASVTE

SMILES | IC50 ([1]; HAP1 MTAP-deleted) | IC50 [2] | IC50 [3, 7] | MTAP intact/deleted ratio [3] | IC50 (PRMT5 [4]) | IC50 (PRMT5 [5]) | IC50 (PRMT5 [6]) | IC50 ([1]; MTAP-deleted cell line) | IC50 [3, 8]
COc1ncc(NC(=O)C(=O)N2C[C@@H](C)CC[C@@H]2c2ccc3c(c2)OCCN3)cc1C(N)=O (racemic) [Compound 869, 5-[[2-[(2R,5S)-2-(3,4-dihydro-2H-1,4-benzoxazin-7-yl)-5-methyl-1-piperidyl]-2-oxo-acetyl]amino]-2-methoxy-pyridine-3-carboxamide] | < 1000 nM | > 1000 nM | < 100 nM | A (an IC50 ratio greater than or equal to 10 fold) | 50 to 500 nM | 50 to 500 nM | 50 to 500 nM |  | 
CCc1cc(NC(=O)C(=O)N2C[C@@H](C)CC[C@@H]2c2ccc3c(c2)OCCN3)cnc1N (racemic) [Compound 870, N-(6-amino-5-ethyl-3-pyridyl)-2-[(2R,5S)-2-(3,4-dihydro-2H-1,4-benzoxazin-7-yl)-5-methyl-1-piperidyl]-2-oxo-acetamide] | < 1000 nM | > 1000 nM | < 100 nM | A (an IC50 ratio greater than or equal to 10 fold) | 50 to 500 nM | 50 to 500 nM | 50 to 500 nM |  | 
Cc1cc(NC(=O)C(=O)N2C[C@@H](C)CC(F)(F)[C@@H]2c2ccc(F)cc2)cnc1N (racemic) [Compound 871, N-(6-amino-5-methyl-3-pyridyl)-2-[(2S,5S)-3,3-difluoro-2-(4-fluorophenyl)-5-methyl-1-piperidyl]-2-oxo-acetamide] | 1000 to 10000 nM | 100 to 1000 nM | < 100 nM | B (an IC50 ratio greater than or equal to 3 fold but lower than 10 fold) | 50 to 500 nM | 50 to 500 nM | < 50 nM |  | 
C[C@@H]1CC[C@@H](c2ccc(F)cc2)N(C(=O)C(=O)Nc2cnc(N)c(C(F)(F)F)c2)C1 (racemic) [Compound 872, N-[6-Amino-5-(trifluoromethyl)-3-pyridyl]-2-[(2S,5R)-2-(4-fluorophenyl)-5-methyl-1-piperidyl]-2-oxo-acetamide] | 1000 to 10000 nM | > 1000 nM | 100 to 1000 nM | A (an IC50 ratio greater than or equal to 10 fold) | 50 to 500 nM | > 500 nM | 50 to 500 nM |  | 
C[C@@H]1C[C@H](F)[C@@H](c2ccc(F)cc2)N(C(=O)C(=O)Nc2cncc(C(N)=O)c2)C1 (racemic) [Compound 879, 5-[[2-[(2R,3S,5R)-3-fluoro-2-(4-fluorophenyl)-5-methyl-1-piperidyl]-2-oxo-acetyl]amino]pyridine-3-carboxamide] | 1000 to 10000 nM | > 1000 nM | 100 to 1000 nM | A (an IC50 ratio greater than or equal to 10 fold) | 50 to 500 nM | 50 to 500 nM | < 50 nM |  | 
Cc1ccc([C@@H]2CC[C@H](C)CN2C(=O)C(=O)Nc2cncc(C(N)=O)c2)nc1 (racemic) [Compound 880, 5-[[2-[(2R,5R)-5-Methyl-2-(5-methyl-2-pyridyl)-1-piperidyl]-2-oxo-acetyl]amino]pyridine-3-carboxamide] | > 10000 nM | > 1000 nM | 100 to 1000 nM | A (an IC50 ratio greater than or equal to 10 fold) | > 500 nM | > 500 nM | 50 to 500 nM |  | 
COc1ncc(NC(=O)C(=O)N2C[C@@H](C)CC[C@H]2c2ccc(C)cn2)cc1C(N)=O (racemic) [Compound 886, 2-Methoxy-5-[[2-[(2R,5R)-5-methyl-2-(5-methyl-2-pyridyl)-1-piperidyl]-2-oxo-acetyl]amino]pyridine-3-carboxamide] |  | > 1000 nM |  | B (an IC50 ratio greater than or equal to 3 fold but lower than 10 fold) | > 500 nM | > 500 nM | 50 to 500 nM | > 10000 nM | > 1000 nM
C[C@@H]1CC[C@@H](c2cnc3c(c2)CCC(=O)N3)N(C(=O)C(=O)Nc2cncc(C(N)=O)c2)C1 (racemic) [Compound 888, rac-5-[[2-[(2S,5R)-5-Methyl-2-(7-oxo-6,8-dihydro-5H-1,8-naphthyridin-3-yl)-1-piperidyl]-2-oxo-acetyl]amino]pyridine-3-carboxamide] |  | > 1000 nM |  | C (an IC50 ratio of less than 3 fold) | 50 to 500 nM | 50 to 500 nM | 50 to 500 nM | > 10000 nM | > 1000 nM
C[C@@H]1CC[C@@H](c2ccc(F)cc2)N(C(=O)C(=O)Nc2cnc(OC(F)F)c(C(N)=O)c2)C1 (racemic) [Compound 889, 2-(difluoromethoxy)-5-(2-(2-(4-fluorophenyl)-5-methylpiperidin-1-yl)-2-oxoacetamido)nicotinamide] |  | > 1000 nM |  | B (an IC50 ratio greater than or equal to 3 fold but lower than 10 fold) | 50 to 500 nM | > 500 nM | 50 to 500 nM | > 10000 nM | > 1000 nM
COc1ncc(NC(=O)C(=O)N2C[C@@H](C)CC[C@@H]2c2cnc3c(c2)CCC(=O)N3)cc1C(N)=O (racemic) [Compound 891, rac-2-Methoxy-5-[[2-[(2S,5R)-5-methyl-2-(7-oxo-6,8-dihydro-5H-1,8-naphthyridin-3-yl)-1-piperidyl]-2-oxo-acetyl]amino]pyridine-3-carboxamide] |  | > 1000 nM |  | A (an IC50 ratio greater than or equal to 10 fold) | 50 to 500 nM | 50 to 500 nM | 50 to 500 nM | > 10000 nM | 100 to 1000 nM
C[C@@H]1C[C@@H](F)[C@@H](c2ccc(F)cc2)N(C(=O)C(=O)Nc2cncc(C(N)=O)c2)C1 (racemic) [Compound 898, 5-[[2-[(2R,3R,5R)-3-fluoro-2-(4-fluorophenyl)-5-methyl-1-piperidyl]-2-oxo-acetyl]amino]pyridine-3-carboxamide] |  | > 1000 nM |  | A (an IC50 ratio greater than or equal to 10 fold) | 50 to 500 nM | > 500 nM | 50 to 500 nM | 1000 to 10000 nM | 100 to 1000 nM
Cc1cc(NC(=O)C(=O)N2CC[C@H](N(C)C)C[C@H]2c2ccccc2)cnc1N (racemic) [Compound 906] |  | > 1000 nM |  | C (an IC50 ratio of less than 3 fold) | > 500 nM | 50 to 500 nM | 50 to 500 nM | > 10000 nM | > 1000 nM
CNc1ccc([C@@H]2CC[C@@H](C)CN2C(=O)C(=O)Nc2cncc(C(N)=O)c2)nc1 (racemic) [Compound 907, 5-[[2-[(2R,5S)-5-methyl-2-[5-(methylamino)-2-pyridyl]-1-piperidyl]-2-oxo-acetyl]amino]pyridine-3-carboxamide] |  | > 1000 nM |  | A (an IC50 ratio greater than or equal to 10 fold) | 50 to 500 nM | 50 to 500 nM | 50 to 500 nM | 1000 to 10000 nM | < 100 nM
CCc1cc(NC(=O)C(=O)N2C[C@H](C)CC[C@H]2c2cccc3[nH]ncc23)cnc1N (racemic) [Compound 911, N-(6-amino-5-ethyl-3-pyridyl)-2-[(2S,5R)-2-(1H-indazol-4-yl)-5-methyl-1-piperidyl]-2-oxo-acetamide] |  | > 1000 nM |  | C (an IC50 ratio of less than 3 fold) | > 500 nM | > 500 nM | > 500 nM | > 10000 nM | > 1000 nM
